Key:
Type in all cases: cell-based
CDK16 = target: T1, CDK16 (Homo sapiens, UniProt Q00536); assay: CDK16 degradation assay (Western blot, MV-4-11 cells); settings: 6-8 h; for Dmax at 0.1 µM: MV4-11, 0.1 μM; for Dmax at 1 µM: MV4-11, 1 μM
T1 construct: Whole cell extracts were prepared using RIPA buffer; endogenous in cells; host or cells: MV-4-11
Procedure: (§1) MV-4-11 cells were grown in RPMI 1640 media supplemented with 10% fetal bovine serum, streptomycin and penicillin.
(§2) Cells were cultured at approximately 10^6 cells per mL and incubated in DMSO or the indicated compound for 6-8 h. Whole cell extracts were prepared using RIPA buffer according to manufacturer's protocol (Pierce). Briefly, 3×10^6 cells were washed once in PBS, the cell pellets were resuspended in RIPA buffer and allowed to incubate for 15 minutes on ice. Cells debris was removed by centrifugation and the cleared whole cell lysates were transferred to new tubes for further analysis.
(§3) For Western blot analysis, whole cell protein extracts were separated on 4-12% SDS-polyacrylamide gels, transferred to nitrocellulose and probed with the indicated primary antibodies. Membranes were subsequently washed and probed with the appropriate IRDye secondary antibodies (LI-COR). The signal was detected using the Odyssey Imaging System (LI-COR).
(§4) The following antibodies were used in these studies: Anti-eRF3/GSPT1: Abcam, ab126090 (Cambridge, Mass.); Anti-Ikaros: Abcam, ab191394 (Cambridge, Mass.); Anti-CK1α: Abcam, ab108296 (Cambridge, Mass.); Anti-CDK9: Santa Cruz Biotechnology, sc13130 (Dallas, Tex.); Anti-CDK16: Millipore Sigma, HPA001366 (St. Louis, Mo.); 3-actin (8H10comD10) mouse monoclonal antibody: Cell Signaling Technology, #3700 (Danvers, Mass.); IRDye 680RD Goat anti-rabbit antibody: LI-COR, 926-68071 (Lincoln, Nebr.); IRDye 800CW Goat anti-mouse antibody: LI-COR, 926-32210 (Lincoln, Nebr.).
(§5) CDK9 activities are shown in Table 4 at two different concentrations. CDK16 activities are shown in Table 5 at two different concentrations. In each of Tables 1-5, the % degradation values are reported as “A”, “B”, “C”, or “D”. “A” represents a % degradation value of less than 25% (value <25%). “B” represents a % degradation value of equal to or more than 25% and less than 50% (25%≤value<50%). “C” represents a % degradation value of equal to or more than 50% and less than 75% (50%≤value<75%). “D” represents a % degradation value of equal to or more than 75% (value ≥75%).

IKAROS = target: T2, IKAROS (Homo sapiens, UniProt Q13422+Q96SW2); assay: IKAROS degradation assay (Western blot, MV-4-11 cells); settings: MV4-11, 6-8 h
T2 construct: endogenous in cells; host or cells: MV-4-11
T2 sequence (Q13422 whole entry): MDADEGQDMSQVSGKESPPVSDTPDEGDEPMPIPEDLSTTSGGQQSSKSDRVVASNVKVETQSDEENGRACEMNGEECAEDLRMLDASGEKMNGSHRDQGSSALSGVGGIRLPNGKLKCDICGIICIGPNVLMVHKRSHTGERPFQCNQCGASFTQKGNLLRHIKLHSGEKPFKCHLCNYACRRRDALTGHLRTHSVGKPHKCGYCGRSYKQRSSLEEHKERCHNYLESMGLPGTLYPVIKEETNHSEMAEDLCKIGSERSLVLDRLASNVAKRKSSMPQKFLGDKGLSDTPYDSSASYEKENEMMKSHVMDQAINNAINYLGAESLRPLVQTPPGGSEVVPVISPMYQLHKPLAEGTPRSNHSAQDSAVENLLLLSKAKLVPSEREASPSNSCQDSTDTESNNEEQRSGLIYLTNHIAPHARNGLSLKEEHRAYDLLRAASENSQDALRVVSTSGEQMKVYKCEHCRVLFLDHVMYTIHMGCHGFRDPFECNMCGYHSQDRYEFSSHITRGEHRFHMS
T2 sequence (Q96SW2 whole entry): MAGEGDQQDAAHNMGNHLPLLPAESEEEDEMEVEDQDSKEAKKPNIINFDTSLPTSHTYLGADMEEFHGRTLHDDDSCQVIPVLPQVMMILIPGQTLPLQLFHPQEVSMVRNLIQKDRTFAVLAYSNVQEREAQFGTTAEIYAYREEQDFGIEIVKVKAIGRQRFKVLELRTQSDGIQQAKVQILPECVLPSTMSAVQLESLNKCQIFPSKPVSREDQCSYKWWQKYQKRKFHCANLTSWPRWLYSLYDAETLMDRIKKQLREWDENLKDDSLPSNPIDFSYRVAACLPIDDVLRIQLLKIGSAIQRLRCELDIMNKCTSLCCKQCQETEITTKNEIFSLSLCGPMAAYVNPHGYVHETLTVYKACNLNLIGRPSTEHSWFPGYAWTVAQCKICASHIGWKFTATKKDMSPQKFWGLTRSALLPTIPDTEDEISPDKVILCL
T2 sequence (Q16531 whole entry partner): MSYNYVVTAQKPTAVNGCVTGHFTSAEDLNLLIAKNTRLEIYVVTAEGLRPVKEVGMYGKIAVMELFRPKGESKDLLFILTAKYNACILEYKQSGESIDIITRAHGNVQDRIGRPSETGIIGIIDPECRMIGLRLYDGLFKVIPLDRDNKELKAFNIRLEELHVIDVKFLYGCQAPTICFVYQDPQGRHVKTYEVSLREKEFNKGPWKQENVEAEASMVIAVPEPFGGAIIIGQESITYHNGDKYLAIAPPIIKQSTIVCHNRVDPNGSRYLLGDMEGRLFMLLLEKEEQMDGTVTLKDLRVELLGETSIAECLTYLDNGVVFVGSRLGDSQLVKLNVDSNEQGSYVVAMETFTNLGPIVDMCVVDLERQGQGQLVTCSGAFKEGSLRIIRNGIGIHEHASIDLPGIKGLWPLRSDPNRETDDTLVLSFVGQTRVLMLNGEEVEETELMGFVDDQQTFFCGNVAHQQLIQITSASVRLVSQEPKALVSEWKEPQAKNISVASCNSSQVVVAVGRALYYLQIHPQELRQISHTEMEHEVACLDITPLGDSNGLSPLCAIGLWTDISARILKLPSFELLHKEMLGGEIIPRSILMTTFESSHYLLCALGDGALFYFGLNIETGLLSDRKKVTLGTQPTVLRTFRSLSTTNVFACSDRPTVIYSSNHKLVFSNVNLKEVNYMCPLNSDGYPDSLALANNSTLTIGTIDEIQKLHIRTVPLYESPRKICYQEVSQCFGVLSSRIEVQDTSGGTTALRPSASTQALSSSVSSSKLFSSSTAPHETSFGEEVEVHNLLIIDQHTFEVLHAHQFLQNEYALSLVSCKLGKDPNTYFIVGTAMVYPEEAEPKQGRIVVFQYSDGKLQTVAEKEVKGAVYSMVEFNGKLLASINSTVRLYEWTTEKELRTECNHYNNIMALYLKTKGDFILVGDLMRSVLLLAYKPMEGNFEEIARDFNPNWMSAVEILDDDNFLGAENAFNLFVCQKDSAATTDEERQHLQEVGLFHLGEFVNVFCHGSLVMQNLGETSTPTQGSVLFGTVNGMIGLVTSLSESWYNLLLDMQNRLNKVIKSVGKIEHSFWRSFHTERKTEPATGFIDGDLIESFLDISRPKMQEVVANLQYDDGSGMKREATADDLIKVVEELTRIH
Procedure: as §1, §2, §3, §4, §5

CDK9 = target: T3, CDK9 (Homo sapiens, UniProt P50750); assay: CDK9 degradation assay (Western blot, MV-4-11 cells); settings: 6-8 h; for Dmax at 0.1 µM: MV4-11, 0.1 μM; for Dmax at 1 µM: MV4-11, 1 μM
T3 construct: Whole cell extracts were prepared using RIPA buffer; endogenous in cells; host or cells: MV-4-11
T3 sequence (P50750 whole entry): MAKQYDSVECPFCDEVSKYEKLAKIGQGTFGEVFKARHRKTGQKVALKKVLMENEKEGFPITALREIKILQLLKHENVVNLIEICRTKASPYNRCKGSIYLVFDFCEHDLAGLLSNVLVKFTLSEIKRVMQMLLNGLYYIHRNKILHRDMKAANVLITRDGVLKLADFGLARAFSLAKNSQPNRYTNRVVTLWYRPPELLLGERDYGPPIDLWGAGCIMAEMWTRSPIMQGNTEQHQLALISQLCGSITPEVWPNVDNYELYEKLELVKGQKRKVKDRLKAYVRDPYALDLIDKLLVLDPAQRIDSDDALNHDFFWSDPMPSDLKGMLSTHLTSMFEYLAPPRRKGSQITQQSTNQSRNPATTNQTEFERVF
Procedure: as §1, §2, §3, §4, §5

MOLM-13 cells = assay: MOLM-13 cell viability assay (CellTiter-Glo); settings: Homo sapiens, MOLM-13, 72 h, 3 days, read-out: MOLM-13 Cell Viability % DMSO at 1 μM
Procedure: MOLM-13 cells were cultured in RPMI 1640 media supplemented with 10% fetal bovine serum, streptomycin and penicillin, and were plated in walled 96-well plates at 2500 cells/well. Cells were incubated in DMSO (control) or the indicated compound for 3 days at 37° C. and 5% CO2. Following the incubation period, 100 μL of CellTiterGlow (CTG) reagent (CellTiter-Glo® Luminescent Cell Viability Assay, Promega (Madison, Wis.)) was added to each well. Following a 10 minutes incubation with shaking, luminescence was measured using the EnVision Multimode plate reader.
The MOLM-13 cell viability values as % DMSO are reported as “A”, “B”, “C”, or “D”. “A” represents a % viability value of less than 50% (value <50%). “B” represents a % viability value of equal to or more than 50% and less than 70% (50%≤value<70%). “C” represents a % viability value of equal to or more than 70% and less than 90% (70%≤value<90%). “D” represents a % viability value of equal or more than 90% (value ≥90%).

TNF-α = TNF-α inhibition assay, LPS-induced PBMCs / CD14+ monocytes (Meso Scale); settings: 1 h pretreatment, 100 ng/mL LPS 18-24 h
Procedure: (§6) Either frozen primary blood mononuclear cells (PBMCs) or frozen CD14+ mobilized peripheral blood monocytes were purchased from AllCells (PB003F, Normal Peripheral Blood MNC (Alameda, Calif.)). Cells were quick thawed, washed 1-time with RPMI-1640 (10% FBS/1% Pen-Strep) and plated in 96 well plates at 200,000 cells per well. Cells were pretreated with DMSO only or with the indicated compound for 1 h and then induced with 100 ng/mL lipopolysaccharide (LPS) for 18-24 h. The supernatant was analyzed for IL-1β, IL-6, and TNFα, using Meso Scale assay according to manufacturer's protocol. The negative control wells were treated with DMSO.
(§7) In Table 6, the % inhibition values are reported as “A”, “B”, “C”, or “D”. “A” represents a % inhibition value of less than 50% (value <50%). “B” represents a % inhibition value of equal to or more than 50% and less than 70% (50%≤value<70%). “C” represents a % inhibition value of equal to or more than 70% and less than 90% (70%≤value<90%). “D” represents a % inhibition value of equal or more than 90% (value ≥90%). In Table 7, the fold-change values are reported as “A”, “B”, “C”, or “D”. “A” represents a fold-change value of equal to or less than 0.1 (value ≤0.1). “B” represents a fold-change value of more than 0.1 and equal to or less than 0.5 (0.1<value≤0.5). “C” represents a fold-change value of more than 0.5 and equal to or less than 1 (0.5<value≤1). “D” represents a fold-change value of more than 1 (value >1).

IL-6 = IL-6 inhibition assay, LPS-induced PBMCs / CD14+ monocytes (Meso Scale); settings: 1 h pretreatment, 100 ng/mL LPS 18-24 h
Procedure: as §6, §7

IL-1β = IL-1β inhibition assay, LPS-induced PBMCs / CD14+ monocytes (Meso Scale); settings: 1 h pretreatment, 100 ng/mL LPS 18-24 h
Procedure: as §6, §7

GSPT1 = target: T4, GSPT1 (Homo sapiens, UniProt P15170+Q96SW2); assay: GSPT1 degradation assay (Western blot, MV-4-11 cells); settings: MV4-11, 6-8 h
T4 construct: Whole cell extracts were prepared using RIPA buffer; endogenous in cells; host or cells: MV-4-11
T4 sequence (P15170 whole entry): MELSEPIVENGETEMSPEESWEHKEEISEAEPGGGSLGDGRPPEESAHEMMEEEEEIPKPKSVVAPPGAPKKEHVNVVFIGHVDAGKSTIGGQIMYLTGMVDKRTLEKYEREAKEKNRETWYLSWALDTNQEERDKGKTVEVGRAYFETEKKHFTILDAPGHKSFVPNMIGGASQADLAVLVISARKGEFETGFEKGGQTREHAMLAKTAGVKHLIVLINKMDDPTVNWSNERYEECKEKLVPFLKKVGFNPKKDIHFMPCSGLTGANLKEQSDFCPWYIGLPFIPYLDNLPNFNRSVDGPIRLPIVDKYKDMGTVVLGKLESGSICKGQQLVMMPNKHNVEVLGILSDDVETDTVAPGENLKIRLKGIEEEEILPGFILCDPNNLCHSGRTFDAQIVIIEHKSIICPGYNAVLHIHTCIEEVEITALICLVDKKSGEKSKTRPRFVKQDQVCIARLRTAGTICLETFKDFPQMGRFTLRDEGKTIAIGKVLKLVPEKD
T4 sequence (Q96SW2 whole entry): as the sequence (Q96SW2 whole entry) above
T4 sequence (Q16531 whole entry partner): as the sequence (Q16531 whole entry partner) above
Procedure: as §1, §2, §3, §4, §5

T1 sequence (Q00536 whole entry): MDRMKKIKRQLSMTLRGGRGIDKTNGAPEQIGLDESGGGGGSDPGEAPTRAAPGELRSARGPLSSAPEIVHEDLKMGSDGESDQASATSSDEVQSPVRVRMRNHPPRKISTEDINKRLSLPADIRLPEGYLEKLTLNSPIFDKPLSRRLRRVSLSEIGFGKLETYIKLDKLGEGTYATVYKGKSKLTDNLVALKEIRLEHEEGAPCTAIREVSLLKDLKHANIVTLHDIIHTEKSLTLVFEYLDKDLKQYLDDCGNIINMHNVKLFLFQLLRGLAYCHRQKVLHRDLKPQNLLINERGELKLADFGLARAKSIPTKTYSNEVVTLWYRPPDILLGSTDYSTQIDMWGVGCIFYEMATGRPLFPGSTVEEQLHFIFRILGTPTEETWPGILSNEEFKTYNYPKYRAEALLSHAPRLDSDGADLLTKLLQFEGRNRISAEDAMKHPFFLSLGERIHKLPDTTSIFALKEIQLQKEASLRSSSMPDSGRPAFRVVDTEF

Row | Compound | Dmax at 0.1 µM (CDK16) | Dmax at 1 µM (CDK16) | Dmax at 1 µM (IKAROS) | Dmax at 0.1 µM (CDK9) | Dmax at 1 µM (CDK9) | Dmax at 1 µM (GSPT1) | viability at 1 µM (MOLM-13 cells) | inhibition at 1 µM (TNF-α) | inhibition at 1 µM (IL-6) | inhibition at 1 µM (IL-1β)
1 | Cn1ncc(-c2nc(N[C@H]3CC[C@H](NC(=O)CCCCCCNC(=O)NCc4cc5c(s4)C(=O)N(C4CCC(=O)NC4=O)C5)CC3)ncc2Cl)c1CC1CC1 (some centres unmarked) [Compound 5, N-((1r,4r)-4-((5-chloro-4-(5-(cyclopropylmethyl)-1-methyl-1H-pyrazol-4-yl)pyrimidin-2-yl)amino)cyclohexyl)-7-(3-((5-(2,6-dioxopiperidin-3-yl)-6-oxo-5,6-dihydro-4H-thieno[2,3-c]pyrrol-2-yl)methyl)ureido)heptanamide] | – | – | – | – | – | – | > 90% | 70 to 90% | > 90% | > 90%
2 | Cn1ncc(-c2nc(N[C@H]3CC[C@H](NCC(=O)NCCCCNCC(=O)NCc4cc5c(s4)C(=O)N(C4CCC(=O)NC4=O)C5=O)CC3)ncc2Cl)c1CC1CC1 (some centres unmarked) [Compound 36, 2-(((1r,4r)-4-((5-chloro-4-(5-(cyclopropylmethyl)-1-methyl-1H-pyrazol-4-yl)pyrimidin-2-yl)amino)cyclohexyl)amino)-N-(4-((2-(((5-(2,6-dioxopiperidin-3-yl)-4,6-dioxo-5,6-dihydro-4H-thieno[2,3-c]pyrrol-2-yl)methyl)amino)-2-oxoethyl)amino)butyl)acetamide] | < 25% | 25 to 50% | – | < 25% | 25 to 50% | – | 50 to 70% | 70 to 90% | 70 to 90% | 70 to 90%
3 | Cn1ncc(-c2nc(N[C@H]3CC[C@H](NCC(=O)NCCCCCNCC(=O)NCc4cc5c(s4)C(=O)N(C4CCC(=O)NC4=O)C5)CC3)ncc2F)c1CC1CC1 (some centres unmarked) [Compound 25, 2-(((1r,4r)-4-((4-(5-(cyclopropylmethyl)-1-methyl-1H-pyrazol-4-yl)-5-fluoropyrimidin-2-yl)amino)cyclohexyl)amino)-N-(5-((2-(((5-(2,6-dioxopiperidin-3-yl)-6-oxo-5,6-dihydro-4H-thieno[2,3-c]pyrrol-2-yl)methyl)amino)-2-oxoethyl)amino)pentyl)acetamide] | – | 50 to 75% | 25 to 50% | 50 to 75% | 50 to 75% | – | > 90% | – | – | –
4 | Cn1ncc(-c2nc(NC3CCC(NC(=O)CCCCCCNC(=O)NCc4scc5c4CN(C4CCC(=O)NC4=O)C5=O)CC3)ncc2Cl)c1CC1CC1 (centres unmarked) [Compound 4, 3-[2-({3-[7-(4-{5-Chloro-4-[5-(cyclopropylmethyl)-1-methyl-1H-pyrazol-4-yl]-2-pyrimidinylamino}cyclohexylamino)-7-oxoheptyl]ureido}methyl)-6-oxo-3-thia-7-azabicyclo[3.3.0]octa-1,4-dien-7-yl]-2,6-piperidinedione] | – | – | – | – | – | 25 to 50% | > 90% | – | – | –
5 | CC(C)(C)c1cnc(CSc2cnc(NC(=O)C3CCN(CCOCCOCCNC(=O)NCc4cc5c(s4)C(=O)N(C4CCC(=O)NC4=O)C5)CC3)s2)o1 (centres unmarked) [Compound 19, N-(5-(((5-(tert-butyl)oxazol-2-yl)methyl)thio)thiazol-2-yl)-1-(1-(5-(2,6-dioxopiperidin-3-yl)-6-oxo-5,6-dihydro-4H-thieno[2,3-c]pyrrol-2-yl)-3-oxo-7,10-dioxa-2,4-diazadodecan-12-yl)piperidine-4-carboxamide] | – | – | – | – | – | – | 70 to 90% | 70 to 90% | > 90% | > 90%
6 | CN(CCNCC(=O)NCc1scc2c1CN(C1CCC(=O)NC1=O)C2=O)CCNC(=O)CN1CCC(C(=O)Nc2ncc(SCc3ncc(C(C)(C)C)o3)s2)CC1 (centres unmarked) [Compound 44, N-(5-(((5-(tert-butyl)oxazol-2-yl)methyl)thio)thiazol-2-yl)-1-(1-(5-(2,6-dioxopiperidin-3-yl)-4-oxo-5,6-dihydro-4H-thieno[3,4-c]pyrrol-1-yl)-8-methyl-3,12-dioxo-2,5,8,11-tetraazatridecan-13-yl)piperidine-4-carboxamide] | – | – | – | – | – | – | 50 to 70% | 50 to 70% | < 50% | 50 to 70%

The next lines start with results.

Row | Dmax at 0.1 µM (CDK16) | Dmax at 1 µM (CDK16) | Dmax at 1 µM (IKAROS) | Dmax at 0.1 µM (CDK9) | Dmax at 1 µM (CDK9) | Dmax at 1 µM (GSPT1) | Compound | viability at 1 µM (MOLM-13 cells) | inhibition at 1 µM (TNF-α) | inhibition at 1 µM (IL-6) | inhibition at 1 µM (IL-1β)
7 | 50 to 75% | ≥ 75% | 25 to 50% | 50 to 75% | ≥ 75% | – | Cn1ncc(-c2nc(N[C@H]3CC[C@H](NCCCCCCNC(=O)NCc4cc5c(s4)C(=O)N(C4CCC(=O)NC4=O)C5)CC3)ncc2Cl)c1CC1CC1 (some centres unmarked) [Compound 24, 1-(6-(((1r,4r)-4-((5-chloro-4-(5-(cyclopropylmethyl)-1-methyl-1H-pyrazol-4-yl)pyrimidin-2-yl)amino)cyclohexyl)amino)hexyl)-3-((5-(2,6-dioxopiperidin-3-yl)-6-oxo-5,6-dihydro-4H-thieno[2,3-c]pyrrol-2-yl)methyl)urea] | > 90% | – | – | –
8 | – | – | 50 to 75% | – | – | – | CC(C)(C)c1cnc(CSc2cnc(NC(=O)C3CCN(CC(=O)NCCOCCOCCOCCNc4cccc5c4C(=O)N(C4CCC(=O)NC4=O)C5=O)CC3)s2)o1 (centres unmarked) [Compound 10, N-(5-(((5-(tert-butyl)oxazol-2-yl)methyl)thio)thiazol-2-yl)-1-(14-((2-(2,6-dioxopiperidin-3-yl)-1,3-dioxoisoindolin-4-yl)amino)-2-oxo-6,9,12-trioxa-3-azatetradecyl)piperidine-4-carboxamide] | – | – | – | –
9 | – | – | 50 to 75% | – | – | – | CC(C)(C)c1cnc(CSc2cnc(NC(=O)C3CCN(CCCCCCCCNC(=O)NCc4cc5c(s4)C(=O)N(C4CCC(=O)NC4=O)C5)CC3)s2)o1 (centres unmarked) [Compound 20, N-(5-(((5-(tert-butyl)oxazol-2-yl)methyl)thio)thiazol-2-yl)-1-(8-(3-((5-(2,6-dioxopiperidin-3-yl)-6-oxo-5,6-dihydro-4H-thieno[2,3-c]pyrrol-2-yl)methyl)ureido)octyl)piperidine-4-carboxamide] | > 90% | – | – | –
10 | – | – | 25 to 50% | – | – | – | CC(C)(C)c1cnc(CSc2cnc(NC(=O)C3CCN(CC(=O)NCCCCCNC(=O)NCc4cc5c(s4)C(=O)N(C4CCC(=O)NC4=O)C5=O)CC3)s2)o1 (centres unmarked) [Compound 27, N-(5-(((5-(tert-butyl)oxazol-2-yl)methyl)thio)thiazol-2-yl)-1-(2-((5-(3-((5-(2,6-dioxopiperidin-3-yl)-4,6-dioxo-5,6-dihydro-4H-thieno[2,3-c]pyrrol-2-yl)methyl)ureido)pentyl)amino)-2-oxoethyl)piperidine-4-carboxamide] | > 90% | – | – | –

Source: patent US20220153751A1, “BIFUNCTIONAL COMPOUNDS” (BioTheryX, Inc., priority 2018, published 2022)
